One series deals with Human rhinovirus 1B. Description: Picornavirus assay (CPE, CellTiter-Glo, HeLa-OHIO cells). Type of series: cell-based. As to conditions: Rhinovirus A, 96 h.
In series [1] the test system is Dengue virus type 2 strain New Guinea C (NG-C) or Dengue virus type 4 strain H241. As to the kind of experiment: Dengue virus cell-based assay (Huh-7.5 cells, CellTiter-Glo). As to conditions: Dengue virus, Huh7.5. On the procedure:
The Dengue virus type 2 strain New Guinea C (NG-C) and the Dengue virus type 4 strain H241 were purchased from ATCC (Manassas, Va.; item numbers VR-1584 and VR-1490, respectively). 24 h prior to dosing, Huh-7.5 cells were plated in 96 well plates at a density of 1.5×10^5/mL in DMEM medium supplemented with 10% fetal bovine serum, 1% HEPES buffer, 1% Penicillin/Streptomycin and 1% non-essential amino acids (all Mediatech, Manassas, Va.). At the day of infection, serially diluted compounds were added to cells and incubated for 4 h. After the end of the 4 h pre-incubation period, cells were infected with either Dengue virus type 2 NG-C or Dengue virus type 4H241. The virus inoculum was selected to cause 80-90% cytopathic effect in five to six days. Infected cells were incubated for five (NG-C) to six (H241) days at 37° C., 5% CO2. To develop the assay, 100 μL media was replaced with 100 μl CellTiter-Glo® reagent (Promega, Madison, Wis.), and incubated for 10 mins at RT. Luminescence was measured on a Victor X3 multi-label plate reader. Potential compound cytotoxicity of was determined using uninfected parallel cultures.
For orientation: ATP-based viability assays read luminescence as a measure of living cells.

The test system of a further series is subgenomic HCV replicon. As to the kind of experiment: HCV replicon assay (Huh-7, luciferase reporter). It is filed as cell-based. As to conditions: Hepatitis C virus. For orientation: In antiviral work, replicon cells carry a viral genome segment that copies itself.
Another series has as its system HRV-89. Description: Human rhinovirus strain panel assay, HRV-89. It is filed as cell-based. Particulars: Rhinovirus A, HRV89.
Series [2] is described as follows: Cytotoxicity in HeLa OHIO host cell line. Type of series: cell-based. As to conditions: human, HeLa-OHIO cells, n>5.
Series [3] has as its system human rhinovirus 16 (HRV-16), coxasackie B3 (CVB3), enterovirus-68 (EV-68) and enterovirus-71 (EV-71). As to the kind of experiment: Enterovirus assay (four viruses, CellTiter Glo). It is filed as cell-based.
Where [4] appears, read: Human rhinovirus 1B, HeLa-OHIO cells, 4 d at 33° C., read-out: EC50.

Read-outs that look alike come from different tables or passages of the source.

For `C[C@H](NP(=O)(OC[C@@]1(F)O[C@@H](n2cnc3c(=O)[nH]c(N)nc32)[C@](C)(O)[C@@H]1F)Oc1ccccc1)C(=O)OC1CCCCC1` (some centres unmarked) [Compound 14], the half-maximal effective concentration (EC50) (as a rule, the concentration that produces a half-maximal response) in the series on Human rhinovirus 1B lay within 10 to 100 µM; in the series with subgenomic HCV replicon (Huh-7, 72 h), 10 to 100 µM. Also, in series [1], the IC50 (in general, the point on the concentration scale where inhibition reaches its midpoint) was under 10 µM.

As for `CCOc1nc(N)nc2c1ncn2[C@@H]1O[C@](F)(COP(=O)(N[C@@H](C)C(=O)OC2CCCCC2)Oc2ccccc2)[C@@H](F)[C@@]1(C)O` (some centres unmarked) [Compound 16], the EC50 in the series with Human rhinovirus 1B was in the range of 1 to 10 µM; in the series on subgenomic HCV replicon (Huh-7, 72 h), 1 to 10 µM. This compound also displayed a half-inhibitory concentration (IC50) in series [1] of under 10 µM.

`CC(C)OC(=O)OCOP(=O)(OCOC(=O)OC(C)C)OC[C@@]1(CF)O[C@@H](n2ccc(=O)[nH]c2=O)[C@](C)(O)[C@@H]1O` [Compound 44]: the half-maximal effective concentration (EC50) in the series with HRV-89 (HRV-89, HeLa-OHIO cells, read-out: EC50) is 1 to 2 µM; in the series on Human rhinovirus 1B (setting [4]), under 1 µM; in the series with subgenomic HCV replicon (Huh-7 HCV replicon cells, luciferase, 72 hours, read-out: EC50), under 1 µM; in series [3] (HRV-16, CVB3, EV-68 (HeLa-OHIO cells) and EV-71 (RD cells), read-out: EC50 ranging (across four viruses)), 0.38 to 2.52 µM; in series [3] (mean over HRV-16, CVB3, EV-68 and EV-71, read-out: EC50 mean (across four viruses)) it was 1.39 ± 1.14 µM. Besides, in series [2], the CC50 (usually the concentration giving 50% cytotoxicity) was over 100 µM.

`CC(C)OC(=O)OCOP(=O)(OCOC(=O)OC(C)C)OC[C@@]1(F)O[C@@H](n2cnc3c(=O)[nH]c(N)nc32)[C@](C)(O)[C@@H]1O` [Compound 46]: in the series on Human rhinovirus 1B (setting [4]), the EC50 is under 1 µM. This compound also gave a 50% inhibitory concentration (IC50) in series [1] of under 100 µM.

Regarding `C#C[C@]1(O)[C@H](n2ccc(=O)[nH]c2=O)O[C@](F)(COP(=O)(OCOC(=O)OC(C)C)OCOC(=O)OC(C)C)[C@H]1O` [Compound 53], the half-maximal effective concentration (EC50) with Human rhinovirus 1B (setting [4]) was under 1 µM. In addition, the IC50 in series [1] was under 10 µM.

Turning to `CCOc1nc(N)nc2c1ncn2[C@@H]1O[C@](F)(COP(=O)(OCOC(=O)OC(C)C)OCOC(=O)OC(C)C)[C@@H](O)[C@@]1(C)O` [Compound 55], in the series on Human rhinovirus 1B (setting [4]), the EC50 is under 1 µM. The compound further had an IC50 in series [1] of under 1 µM.

For `CCOc1nc(N)nc2c1ncn2[C@@H]1O[C@]2(F)CO[P@](=O)(OC(C)C)O[C@H]2[C@@]1(C)F` [Compound 86], the concentration for a half-maximal effect (EC50) in the series with Human rhinovirus 1B (setting [4]) is 10 to 100 µM. Besides, the IC50 in series [1] is under 1 µM.

As to `CCOc1nc(N)nc2c1ncn2[C@@H]1O[C@]2(F)CO[P@](=O)(OC(C)C)O[C@H]2[C@@]1(C)O` [Compound 88], the EC50 with Human rhinovirus 1B (setting [4]) fell in the range of 10 to 100 µM. This compound also yielded a half-inhibitory concentration (IC50) in series [1] of under 10 µM.

For the compound `CCOc1nc(N)nc2c1ncn2[C@@H]1O[C@]2(F)CO[P@@](=O)(OC(C)C)O[C@H]2[C@@]1(C)O` [Compound 89], the EC50 with Human rhinovirus 1B (setting [4]) was 10 to 100 µM. In addition, in series [1], the half-inhibitory concentration (IC50) was under 10 µM.

On to `CC(C)OC(=O)OCOP(=O)(OCOC(=O)OC(C)C)OC[C@@]1(CF)O[C@@H](n2ccc(=O)[nH]c2=O)[C@](C)(O)[C@@H]1OC(=O)C(N)C(C)C` (some centres unmarked) [Compound 160], for which the EC50 is 1 to 2 µM in the series on HRV-89 and under 1 µM in the series with Human rhinovirus 1B. In series [2], this compound showed a CC50 of over 100 µM.

As for `CC(C)OC(=O)OCOP(=O)(OCOC(=O)OC(C)C)OC[C@@]1(F)O[C@@H](n2ccc(=O)[nH]c2=O)[C@](C)(F)[C@@H]1O` [Compound 161], in the series on Human rhinovirus 1B (setting [4]), the EC50 was 1 to 10 µM. In series [1], this compound gave an IC50 of under 10 µM.

The values above are taken from US10370401B2, “Substituted nucleosides, nucleotides and analogs thereof” (Alios BioPharma, Inc., priority 2013, dated 2019).
